Measured values published in US5545719A, “Nerve growth peptides” (Neuromedica, Inc., priority 1994, dated 1996).
Peptide text beside a SMILES is read from it.

Columns and labels:
Solubility observations = format: physicochemical; settings: physiological pH values
NB2a/d1 cells = assay: Neurite sprouting assay (RSE), NB2a/d1 cells; format: cell-based, mouse; settings: 24 hrs in culture
Description: (§1) Two cell lines were used. The mouse neuroblastoma cell line NB2a/dl was grown to confluency in P/100 plastic plates in the presence of Delbecco's medium with 10% fetal calf serum at 36.5° C. in a 5% CO2 atmosphere. Shea, T. B. et al., Dev. Brain Res., 21:307-314 (1985). An adrenergic mouse cell line based on PC12 pheochromocytoma cells was grown on collagen-coated culture plates using 85% RPMI 1640 and 10% heat-inactivated horse serum as the growth medium. Greene, L. A. et al., Proc. Natl. Acad. Sci. USA, 73:2424-2428 (1976). Cultures were grown in P-100 plates from an initial plating of 10^5 cells/ml under sterile conditions using 10 ml of incubation medium. Experimental cultures received a given concentration of protein fragment in 1 ml of serum-free medium. Control cultures received no fragment. Equal numbers of test and control plates were incubated at 35.5° C. in a 95%/5% air/CO2 humified atmosphere, and then examined for neurite growth patterns at 18, 24 and 48 hr after the plating in a phase microscope at a magnification of 100 or 200 ×, as specified.
The test to determine the degree of sprouting was carried out blind to determine (1) the total number of cells present in a given field of observation and (2) the percent of these that have zero and one or two or more process. Twelve microscope fields, each containing 50-100 cells, were randomly selected in each plate and cells counted according to the categories described above. The data for 12 fields in each of two plates for each added protein fragment were combined to obtain an analysis of the percent sprouting (i.e. the % of cells that have one or more processes after 24 hr in culture) for each protein fragment. The ratio, % sprouting in experimental cultures/% sprouting in control cultures, is an index of the "relative sprouting effect" (RSE) of a protein fragment.

NB2a/dl cells = assay: Neurite elongation assay (REE), NB2a/dl cells; format: cell-based, mouse; settings: Conc. 1000 μM, 24 hrs in culture
Description: as §1, with “Equal numbers of test and control plates were incubated at 35.5° C. in a 95%/5% air/CO2 humified atmosphere, and then examined for neurite growth patterns at 18, 24 and 48 hr after the plating in a phase microscope at a magnification of 100 or 200 ×, as specified.” left out
(§2) In each of the twelve microscope fields, the length of nerve cell processes (minimum length: 0.5 times the cell body length) was also measured to determine the percentage of nerve elongation after 24 hr. The percentage of total cells that developed a longest process equal to its cell body length was calculated according to the formula in Table V, supra. […]

PC12 cells [1] = assay: Neurite elongation assay (REE), PC12 cells; format: cell-based, mouse
Description: as §1, with “Equal numbers of test and control plates were incubated at 35.5° C. in a 95%/5% air/CO2 humified atmosphere, and then examined for neurite growth patterns at 18, 24 and 48 hr after the plating in a phase microscope at a magnification of 100 or 200 ×, as specified.” left out
as §2

PC12 cells [2] = assay: Neurite sprouting assay (RSE), PC12 cells; format: cell-based, mouse; settings: Conc. .07 μM, 24 hrs in culture
Description: as §1, with “Equal numbers of test and control plates were incubated at 35.5° C. in a 95%/5% air/CO2 humified atmosphere, and then examined for neurite growth patterns at 18, 24 and 48 hr after the plating in a phase microscope at a magnification of 100 or 200 ×, as specified.” left out
The test to determine the degree of sprouting was carried out blind to determine (1) the total number of cells present in a given field of observation and (2) the percent of these that have zero and one or two or more process. Twelve microscope fields, each containing 50-100 cells, were randomly selected in each plate and cells counted according to the categories described above. […]

For CC(C)C[C@H](NC(=O)[C@@H](NC(=O)[C@H](CCC(=O)O)NC(=O)[C@H](CCCCN)NC(=O)[C@@H](N)CCCCN)[C@@H](C)O)C(=O)N[C@@H](CCC(N)=O)C(=O)N[C@@H](Cc1ccccc1)C(=O)N[C@@H](CCCNC(=N)N)C(=O)O [compound 8933, Lys Lys Glu Thr Leu Gln Phe Arg] (H-KKETLQFR-OH), the solubility in saline (Solubility observations) was “highly soluble”.

In the case of CCCC(=O)Nc1ncnc2c1ncn2[C@@H]1O[C@@H]2COP(=O)(O)O[C@H]2[C@H]1OC(=O)CCC [dibutyryl cyclic AMP, reference compound], the “RSE (relative sprouting effect)” value (NB2a/d1 cells; Conc. 1000 (μm)) is reported as 1.7 and the “REE (neurite elongation)” value (NB2a/dl cells) is reported as 2.58.

For Nerve growth factor, the “REE (neurite elongation)” value (PC12 cells [1]; Conc. .03 μM, 24 hrs in culture) was 3.30, the “effect on neurite elongation, result in words” value (PC12 cells [1]; Table IV) was “most significant effects” and the “RSE (relative sprouting effect)” value (PC12 cells [2]) was 2.9. For the same compound, the “RSE (relative sprouting effect)” value (NB2a/d1 cells; Conc. 0.03 (μm)) was 1.76 ± .034 and the “RSE (relative sprouting effect)” value (NB2a/d1 cells; Conc. .07 (μm)) was 1.76 ± .07.
